Measurements: patent US7205127B2 (priority 2002, dated 2007)

How the values were obtained:
C57BL/6J ob/ob mice = settings: 1 mg/kg i.p. once daily for 4 days
Experimental: Studies were conducted in vivo, in an animal model of obesity characterized by insulin resistance. Eight-month old C57BL/6J ob/ob mice (M&B A/S, Denmark) were matched for sex, weight and fasting blood glucose concentrations. The animals were injected intraperitoneally once daily with DPI (1 mg/kg) or water for 4 days. On day 5, the animals were fasted for 2.5 h and then given an i.p. injection of human insulin 0.5 U/kg (Actrapid, Novo Nordisk, Denmark) and their blood glucose levels were monitored for 4 h by sampling from the tail. The glucose concentration was determined using a Glucometer Accutrend Sensor (Roche).

[1] = system: thioredoxin-gp91phox fusion protein; settings: in the presence of NAD(P)H and FAD; cited from earlier work
differentiated L6 cells = test: 2-deoxy-glucose transport (glucose uptake) assay in differentiated L6 myotubes; type: cell-based, rat
Experimental: Rat skeletal muscle L6-K cells were grown in minimal essential medium (α-MEM Glutamax I) containing 10% fetal bovine serum at 37° C., 5% CO2. The cells were passaged twice weekly by treatment with trypsin-EDTA and transfer of ⅓ of the cells to new flasks with fresh culture medium. For differentiation into myotubes, 30,000 cells were seeded in 1 ml in 24-well plates. When the cells were confluent, usually after 3 days, the medium was replaced by differentiation medium consisting of α-MEM, 2% fetal bovine serum and penicillin/streptomycin at a concentration of 100 U/ml and 100 μg/ml, respectively. The medium was replaced every 2–3 days. Between days 4–7, differentiation medium containing 1 mM cytidine was used. The cells were differentiated for 8–10 days before being used in experiments.
On the day before the glucose transport assay, the wells of the culture plate were emptied and 1 ml serum free DMEM containing 5 mM glucose and penicillin/streptomycin was added. In some experiments the cells were treated over night with test compounds in 1 ml and additional treatments were added the next day to give a total volume of 2 ml. In these experiments, insulin (100–1000 nM) was added in 0.2 ml. When all treatments were performed after 20–24 h in serum free medium, a total volume of 1 ml was used. The wells were emptied and 0.5 ml prewarmed PBS without Ca^2+/mg^2+ containing 1 μCi/ml radioactive 2-deoxy-glucose added. After 10 min at 37° C., the wells were emptied and washed three times with cold PBS. The cell monolayer was solubilized in 0.5 ml 0.5 M NaOH for 3 h at room temperature. 400 μl was mixed with 8 ml scintillation fluid (Optiphase, Wallac) and counted in a scintillation counter (Packard TriCarb). Two 10-μl aliquots were used for determination of protein concentration using the method according to Bradford (Anal. Biochem., 1976, 72:248–54) from BioRad.
This effect is seen when cells are stimulated with 0.1–10 μM DPI for 1 h. A bell-shaped dose response curve for DPI with an optimum at 1 μM is recorded. The effect of suboptimal concentrations of DPI during a 1 h treatment could be stimulated further if insulin is added 30 min after DPI. However, insulin has little additional effect when the maximum effect of DPI is reached in the 1 h protocol (FIG. 1). The effective concentrations at which DPI stimulates glucose transport corresponds well to the concentrations inhibiting NAD(P)H oxidase activity in cell free systems [O'Donnell et al., Biochemical Journal, 290:41–9 (1993)]. […] On the basis of the above results it is postulated that DPI enhances a constitutive activity of the insulin receptor and/or the intracellular insulin-signaling pathway.
Assuming that the enhancing effect of DPI on insulin signaling was due to inhibition of ROS production, it was investigated whether an exogenous source of H2O2 could counteract the effect of DPI. To this end, L6 cells were treated with 25 mU/ml of glucose oxidase for 30 min before addition of DPI.

NAD(P)H oxidase = molecular target: T1, NAD(P)H oxidase (Homo sapiens, UniProt P19878); settings: most likely via binding to p67phox; cited from earlier work
T1 sequence (P19878 1-526): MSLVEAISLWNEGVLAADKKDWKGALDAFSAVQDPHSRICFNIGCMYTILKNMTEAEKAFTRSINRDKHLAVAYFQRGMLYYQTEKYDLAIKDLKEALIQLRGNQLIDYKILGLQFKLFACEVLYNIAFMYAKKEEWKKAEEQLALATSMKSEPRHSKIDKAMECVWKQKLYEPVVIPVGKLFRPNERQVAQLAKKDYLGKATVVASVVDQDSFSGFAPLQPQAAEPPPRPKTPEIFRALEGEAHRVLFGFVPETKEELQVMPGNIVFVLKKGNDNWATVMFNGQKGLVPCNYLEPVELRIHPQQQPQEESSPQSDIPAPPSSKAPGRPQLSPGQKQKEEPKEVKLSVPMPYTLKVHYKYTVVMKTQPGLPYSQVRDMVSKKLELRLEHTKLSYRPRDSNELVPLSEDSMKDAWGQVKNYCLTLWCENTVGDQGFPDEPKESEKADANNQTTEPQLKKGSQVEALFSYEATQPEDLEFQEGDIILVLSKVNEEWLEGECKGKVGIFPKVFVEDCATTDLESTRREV

For c1ccc2c(c1)[I+]c1ccccc1-2 [DPI, Diphenylene iodonium], the “side effects of treatment” value (C57BL/6J ob/ob mice; ob/ob mice) is given as “Without any overt side effects”, the “blood glucose levels versus control group” value (C57BL/6J ob/ob mice; 1–4 h after injection of insulin 0.5 U/kg (FIG. 3)) is given as “significantly lower blood glucose levels” and the “diaphorase activity of thioredoxin-gp91phox fusion protein” value [1] is given as “inhibited”. The “optimum of bell-shaped dose response curve for glucose uptake” value (differentiated L6 cells; 1 h treatment) was 1 µM, the “reduction of stimulatory effect on glucose transport by glucose oxidase” value (differentiated L6 cells; L6 cells treated with 25 mU/ml glucose oxidase for 30 min before addition of DPI (FIG. 2)) was 68% and the “concentrations at which the increase in glucose uptake is seen” value (differentiated L6 cells; cells stimulated for 1 h) was 0.1 to 10 µM. The glucose uptake (differentiated L6 cells; differentiated L6 cells incubated with DPI for 1 h (FIG. 1)) was “significant increase”.
For Mastoparan, the “NAD(P)H oxidase activation” value (NAD(P)H oxidase) is given as “inhibit NAD(P)H oxidase activation”.
In the case of “insulin: bovine insulin purchased from Sigma, used to stimulate glucose transport”, the “reduction of insulin stimulated glucose transport by glucose oxidase” value (differentiated L6 cells; L6 cells treated with 25 mU/ml glucose oxidase, 200 nM insulin (FIG. 2)) is reported as 65%.
